Patent publication EP4643843A1, “A COSMETIC OIL IN WATER EMULSION COMPOSITION COMPRISING APPLE JUICE” (Ledniowski, Dariusz, priority 2024, dated 2025)

What was measured:
Aquaporin 3 = conditions: skin substitute EpiDermFT; cited from earlier work
collagenase = conditions: cited from earlier work
E-cadherin = conditions: skin substitute EpiDermFT; cited from earlier work
elastase = conditions: relative to retinol; cited from earlier work
rat brain homogenates = conditions: cited from earlier work
Epiderm human skin model = conditions: pH 7.4
Method: The irritant potential of the extract was evaluated in vitro, by the colorimetric method (MTT), using the reconstructed epidermis model "EpiDerm® (MatTek Corporation).
In order to determine the safety of birch extract in cosmetics, a method was used to determine the irritant potential using the Epiderm human skin model, which contains a multilayered differentiated epidermis. In this method, the exposure time at which a 50% reduction in the number of viable cells (ET50) occurs is assessed. This number is assessed by measuring the reduction of MTT - 3-(4,5-dimethylthiaz-2-yl)-2-5-diphenyltetrazolium bromide). Formazan, which is blue-violet in colour, is formed as a result of mitochondrial metabolism. Formazan formation allows assessment of the number of cells that have been damaged. A chemical is classified as an irritant if the cell survival rate relative to a negative sample (containing neutral solvent) is below 50%.
The test consisted of applying an appropriate amount of a solution of the test compound to the surface of the epidermis model. Birch extract solutions of 0.25 per cent and 0.5 per cent by weight were prepared, corresponding to the content of this active ingredient in cosmetic preparations. […]

Structure (SMILES) | AQP3 gene expression (Aquaporin 3) | inhibits collagenase, effectiveness (collagenase) | CDH1 gene expression (E-cadherin) | inhibits elastase, compared with retinol (elastase) | lipid peroxidation (rat brain homogenates) | Relative cell viability [%] (Epiderm human skin model)
C=C[C@@](C)(/C=C/c1ccc(O)cc1)CCC=C(C)C [Bakuchiol] | 4.3 | 50% | 21.6 | almost nine times more strongly than retinol |  | 
C=C[C@@](C)(/C=C/c1ccc(OC)cc1)CCC=C(C)C [O-methylbakuchiol] |  |  |  |  | inhibited | 
CC1=C(/C=C/C(C)=C/C=C/C(C)=C/CO)C(C)(C)CCC1 [Retinol] | 3.5 | not affected at all | 9.4 |  |  | 
CCCCCCCCCCCCOS(=O)(=O)[O-].[Na+] [SLS] |  |  |  |  |  | 6.03
